According to the supplement of paper PMC10307832:

How the values were obtained:
Test in all cases: relative viability (nuclei count vs DMSO), 5 days (fraction); higher = more cells survive
TGX 221 + Foretinib = compound: CC1=CN2C(=O)C=C(N=C2C(=C1)C(C)NC3=CC=CC=C3)N4CCOCC4 [TGX 221] + COc1cc2c(Oc3ccc(NC(=O)C4(C(=O)Nc5ccc(F)cc5)CC4)cc3F)ccnc2cc1OCCCN1CCOCC1 [Foretinib] (partner 0.25 µM)
Summary of the method: (§1)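 Lung cancer cell lines in 1536-well plates got either a single drug or a fixed anchor-drug dose together with five library-drug doses (not always all listed) in √10 steps, by pin tool, on the day after seeding. Nuclei were counted after 5 days, and relative viability is the treated-to-vehicle ratio of nuclei counts. Values are medians of duplicate plates.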

[1] = compound: O=C(CCCCCCNC(=O)c1cnc(N(c2ccccc2)c2ccccc2)nc1)NO [Ricolinostat] + CCNC(=O)c1noc(-c2cc(C(C)C)c(O)cc2O)c1-c1ccc(CN2CCOCC2)cc1 [Luminespib] (partner 0.01 µM)
Summary of the method: as §1

[2] = compound: C1=CC=C(C(=C1)C2=CC=C(C=C2)C3=CSC4=C3C(=C(C(=O)N4)C#N)O)O + COc1cc2c(Oc3ccc(NC(=O)C4(C(=O)Nc5ccc(F)cc5)CC4)cc3F)ccnc2cc1OCCCN1CCOCC1 [Foretinib] (partner 0.25 µM)
Summary of the method: as §1

[3] = compound: O=C(CCCCCCNC(=O)c1cnc(N(c2ccccc2)c2ccccc2)nc1)NO [Ricolinostat] + CC(C)C[C@H](NC(=O)[C@H](Cc1ccccc1)NC(=O)c1cnccn1)B(O)O [Bortezomib] (partner 0.002 µM)
Summary of the method: as §1

HARA
relative viability (TGX 221 + Foretinib; first compound 0.08 µM): 0.703 | relative viability (TGX 221 + Foretinib; first compound 0.253 µM): 0.71 | relative viability (TGX 221 + Foretinib; first compound 0.8 µM): 0.904 | relative viability (TGX 221 + Foretinib; first compound 2.53 µM): 0.849 | relative viability (TGX 221 + Foretinib; first compound 8 µM): 0.667 | relative viability ([1]; first compound 0.08 µM): 0.787 | relative viability ([1]; first compound 0.253 µM): 0.606 | relative viability ([1]; first compound 0.8 µM): 0.478 | relative viability ([1]; first compound 2.53 µM): 0.349 | relative viability ([2]; first compound 0.08 µM): 0.721 | relative viability ([2]; first compound 0.253 µM): 1.08 | relative viability ([2]; first compound 0.8 µM): 0.938 | relative viability ([2]; first compound 2.53 µM): 0.882 | relative viability ([2]; first compound 8 µM): 0.706 | relative viability ([3]; first compound 0.08 µM): 1.05 | relative viability ([3]; first compound 0.253 µM): 1.02 | relative viability ([3]; first compound 0.8 µM): 1.1 | relative viability ([3]; first compound 2.53 µM): 0.638

NCI-H727
relative viability (TGX 221 + Foretinib; first compound 0.08 µM): 0.876 | relative viability (TGX 221 + Foretinib; first compound 0.253 µM): 1.05 | relative viability (TGX 221 + Foretinib; first compound 0.8 µM): 1.16 | relative viability (TGX 221 + Foretinib; first compound 2.53 µM): 1.12 | relative viability (TGX 221 + Foretinib; first compound 8 µM): 1.05 | relative viability ([1]; first compound 0.08 µM): 0.314 | relative viability ([1]; first compound 0.253 µM): 0.283 | relative viability ([1]; first compound 0.8 µM): 0.236 | relative viability ([1]; first compound 2.53 µM): 0.379 | relative viability ([2]; first compound 0.08 µM): 1.26 | relative viability ([2]; first compound 0.253 µM): 0.97 | relative viability ([2]; first compound 0.8 µM): 1.27 | relative viability ([2]; first compound 2.53 µM): 0.789 | relative viability ([2]; first compound 8 µM): 0.843 | relative viability ([3]; first compound 0.08 µM): 0.554 | relative viability ([3]; first compound 0.253 µM): 1.1 | relative viability ([3]; first compound 0.8 µM): 0.811 | relative viability ([3]; first compound 2.53 µM): 0.911

COR-L 105
relative viability (TGX 221 + Foretinib; first compound 0.08 µM): 0.993 | relative viability (TGX 221 + Foretinib; first compound 0.253 µM): 0.976 | relative viability (TGX 221 + Foretinib; first compound 0.8 µM): 0.99 | relative viability (TGX 221 + Foretinib; first compound 2.53 µM): 0.825 | relative viability (TGX 221 + Foretinib; first compound 8 µM): 0.781 | relative viability ([1]; first compound 0.253 µM): 0.746 | relative viability ([1]; first compound 0.8 µM): 0.765 | relative viability ([1]; first compound 2.53 µM): 0.749 | relative viability ([2]; first compound 0.08 µM): 1.24 | relative viability ([2]; first compound 0.253 µM): 1.33 | relative viability ([2]; first compound 0.8 µM): 0.997 | relative viability ([2]; first compound 2.53 µM): 0.943 | relative viability ([2]; first compound 8 µM): 0.994 | relative viability ([3]; first compound 0.08 µM): 0.844 | relative viability ([3]; first compound 0.253 µM): 0.885 | relative viability ([3]; first compound 0.8 µM): 0.946 | relative viability ([3]; first compound 2.53 µM): 0.993

201T
relative viability (TGX 221 + Foretinib; first compound 0.08 µM): 1.22 | relative viability (TGX 221 + Foretinib; first compound 0.253 µM): 1.09 | relative viability (TGX 221 + Foretinib; first compound 0.8 µM): 1.13 | relative viability (TGX 221 + Foretinib; first compound 2.53 µM): 0.931 | relative viability (TGX 221 + Foretinib; first compound 8 µM): 0.817 | relative viability ([1]; first compound 0.08 µM): 0.94 | relative viability ([1]; first compound 0.253 µM): 1.04 | relative viability ([1]; first compound 0.8 µM): 1.09 | relative viability ([1]; first compound 2.53 µM): 1.08 | relative viability ([2]; first compound 0.253 µM): 1.12 | relative viability ([2]; first compound 0.8 µM): 1.23 | relative viability ([2]; first compound 2.53 µM): 0.988 | relative viability ([2]; first compound 8 µM): 0.954 | relative viability ([3]; first compound 0.08 µM): 0.989 | relative viability ([3]; first compound 0.253 µM): 1.11 | relative viability ([3]; first compound 0.8 µM): 1.09 | relative viability ([3]; first compound 2.53 µM): 1.12

NCI-H460
relative viability (TGX 221 + Foretinib; first compound 0.08 µM): 1.02 | relative viability (TGX 221 + Foretinib; first compound 0.253 µM): 0.968 | relative viability (TGX 221 + Foretinib; first compound 0.8 µM): 1.14 | relative viability (TGX 221 + Foretinib; first compound 2.53 µM): 0.957 | relative viability (TGX 221 + Foretinib; first compound 8 µM): 0.83 | relative viability ([1]; first compound 0.08 µM): 0.0274 | relative viability ([1]; first compound 0.253 µM): 0.0237 | relative viability ([1]; first compound 0.8 µM): 0.0543 | relative viability ([1]; first compound 2.53 µM): 0.0362 | relative viability ([2]; first compound 0.08 µM): 1.18 | relative viability ([2]; first compound 0.253 µM): 1.11 | relative viability ([2]; first compound 0.8 µM): 0.972 | relative viability ([2]; first compound 2.53 µM): 1 | relative viability ([2]; first compound 8 µM): 0.569 | relative viability ([3]; first compound 0.08 µM): 0.895 | relative viability ([3]; first compound 0.253 µM): 1.01 | relative viability ([3]; first compound 0.8 µM): 1.11 | relative viability ([3]; first compound 2.53 µM): 1

LOU-NH91
relative viability (TGX 221 + Foretinib; first compound 0.08 µM): 0.766 | relative viability (TGX 221 + Foretinib; first compound 0.253 µM): 0.922 | relative viability (TGX 221 + Foretinib; first compound 0.8 µM): 0.945 | relative viability (TGX 221 + Foretinib; first compound 2.53 µM): 0.907 | relative viability (TGX 221 + Foretinib; first compound 8 µM): 0.781 | relative viability ([1]; first compound 0.08 µM): 0.322 | relative viability ([1]; first compound 0.253 µM): 0.371 | relative viability ([1]; first compound 0.8 µM): 0.347 | relative viability ([1]; first compound 2.53 µM): 0.313 | relative viability ([2]; first compound 0.08 µM): 0.942 | relative viability ([2]; first compound 0.253 µM): 0.96 | relative viability ([2]; first compound 0.8 µM): 0.92 | relative viability ([2]; first compound 2.53 µM): 0.914 | relative viability ([2]; first compound 8 µM): 0.868 | relative viability ([3]; first compound 0.253 µM): 0.502 | relative viability ([3]; first compound 0.8 µM): 0.497 | relative viability ([3]; first compound 2.53 µM): 0.446

LU99A
relative viability (TGX 221 + Foretinib; first compound 0.08 µM): 0.68 | relative viability (TGX 221 + Foretinib; first compound 0.253 µM): 0.902 | relative viability (TGX 221 + Foretinib; first compound 0.8 µM): 0.755 | relative viability (TGX 221 + Foretinib; first compound 2.53 µM): 0.917 | relative viability (TGX 221 + Foretinib; first compound 8 µM): 0.953 | relative viability ([1]; first compound 0.08 µM): 0.254 | relative viability ([1]; first compound 0.253 µM): 0.224 | relative viability ([1]; first compound 0.8 µM): 0.239 | relative viability ([1]; first compound 2.53 µM): 0.25 | relative viability ([2]; first compound 0.08 µM): 0.89 | relative viability ([2]; first compound 0.253 µM): 0.86 | relative viability ([2]; first compound 0.8 µM): 0.754 | relative viability ([2]; first compound 2.53 µM): 0.83 | relative viability ([2]; first compound 8 µM): 0.797 | relative viability ([3]; first compound 0.08 µM): 1.02 | relative viability ([3]; first compound 0.253 µM): 0.952 | relative viability ([3]; first compound 0.8 µM): 0.976 | relative viability ([3]; first compound 2.53 µM): 0.745

ChaGo-K-1
relative viability (TGX 221 + Foretinib; first compound 0.08 µM): 0.989 | relative viability (TGX 221 + Foretinib; first compound 0.253 µM): 0.871 | relative viability (TGX 221 + Foretinib; first compound 0.8 µM): 0.926 | relative viability (TGX 221 + Foretinib; first compound 2.53 µM): 0.827 | relative viability (TGX 221 + Foretinib; first compound 8 µM): 0.876 | relative viability ([1]; first compound 0.08 µM): 0.679 | relative viability ([1]; first compound 0.253 µM): 0.633 | relative viability ([1]; first compound 0.8 µM): 0.561 | relative viability ([1]; first compound 2.53 µM): 0.577 | relative viability ([2]; first compound 0.08 µM): 0.882 | relative viability ([2]; first compound 0.253 µM): 0.9 | relative viability ([2]; first compound 0.8 µM): 1.08 | relative viability ([2]; first compound 2.53 µM): 1.02 | relative viability ([2]; first compound 8 µM): 0.723 | relative viability ([3]; first compound 0.08 µM): 1 | relative viability ([3]; first compound 0.253 µM): 1.18 | relative viability ([3]; first compound 0.8 µM): 0.959 | relative viability ([3]; first compound 2.53 µM): 0.9

SW 1573
relative viability (TGX 221 + Foretinib; first compound 0.08 µM): 0.889 | relative viability (TGX 221 + Foretinib; first compound 0.253 µM): 0.881 | relative viability (TGX 221 + Foretinib; first compound 0.8 µM): 0.975 | relative viability (TGX 221 + Foretinib; first compound 2.53 µM): 0.822 | relative viability (TGX 221 + Foretinib; first compound 8 µM): 0.851 | relative viability ([1]; first compound 0.08 µM): 0.389 | relative viability ([1]; first compound 0.253 µM): 0.214 | relative viability ([1]; first compound 0.8 µM): 0.144 | relative viability ([1]; first compound 2.53 µM): 0.154 | relative viability ([2]; first compound 0.08 µM): 0.836 | relative viability ([2]; first compound 0.253 µM): 0.864 | relative viability ([2]; first compound 0.8 µM): 0.884 | relative viability ([2]; first compound 2.53 µM): 0.916 | relative viability ([2]; first compound 8 µM): 0.837 | relative viability ([3]; first compound 0.08 µM): 0.834 | relative viability ([3]; first compound 0.253 µM): 1.13 | relative viability ([3]; first compound 0.8 µM): 1.06 | relative viability ([3]; first compound 2.53 µM): 1.13
